Measurements reported in paper PMC8175350, “Drug repurposing screens identify chemical entities for the development of COVID-19 interventions” (Nature Communications, 2021).
Read-outs that look alike come from different tables or passages of the source.

Columns and labels:
SARS-CoV-2 [1] = experiment: microbe, parasite or virus in culture; assay type: cell-based
HeLa-ACE2 cells [2] = experiment: Total cell count in the HeLa-ACE2 TOA assay; assay type: cell-based; details: Homo sapiens
Text: Supplement 41467_2021_23328_MOESM3_ESM.xlsx, sheet "Table S1" | column: HeLa-ACE2 TOA cell count

Calu-3 cells [3] = experiment: cells; details: Homo sapiens
Calu-3 cells [4] = experiment: Uninfected Calu-3 48 h Cell-Titer Glo cytotoxicity counter screen; details: curve plateau at infinite concentration
HeLa-ACE2 cells [5] = experiment: cells; details: Homo sapiens
SARS-CoV-2 [6] = experiment: microbe, parasite or virus in culture; assay type: cell-based; remark: listed apart in the source
HepG2 = HepG2 72 h CellTiter-Glo cytotoxicity; details: 72 h
SARS-CoV-2 [7] = assay type: cell-based; details: combination with remdesivir, synergy score δ
[8] = Uninfected HeLa-ACE2 24 h live/dead cytotoxicity counter screen; assay type: cell-based, human; details: human, uninfected HeLa-ACE2 cells; read-out: HeLa-ACE2 uninfected cytotoxicity CC50 GeoMean
HeLa-ACE2 cells [9] = experiment: as above; assay type: cell-based, human; details: curve plateau at infinite concentration
HEK293T = HEK293T 72 h CellTiter-Glo cytotoxicity; details: 72 h
SARS-CoV-2 [10] = experiment: microbe, parasite or virus in culture; assay type: cell-based; remark: listed apart in the source
in vitro = details: human, Calu-3 uninfected cytotoxicity CC50 GeoMean

C=CC(=O)Nc1cc(Nc2nccc(-c3cn(C)c4ccccc34)n2)c(OC)cc1N(C)CCN(C)C [AZD-9291/Osimertinib]
Emax (SARS-CoV-2 [1]; Severe acute respiratory syndrome coronavirus 2, HeLa-ACE2, 10 h, curve plateau at infinite concentration, read-out: HeLa-ACE2 TOA CoV-2 Sinf Average): 100%
EC50 (SARS-CoV-2 [1]; Severe acute respiratory syndrome coronavirus 2, HeLa-ACE2, read-out: HeLa-ACE2 TOA CoV-2 EC50 GeoMean): > 7.85 µM
Emax (HeLa-ACE2 cells [2]; HeLa-ACE2, 10 h, curve plateau at infinite concentration, read-out: HeLa-ACE2 TOA cell count Sinf Average): -100%
EC50 (HeLa-ACE2 cells [2]; HeLa-ACE2, read-out: HeLa-ACE2 TOA cell count EC50 GeoMean): > 9.6 µM
Emax (Calu-3 cells [3]; Calu-3, 48 h, read-out: Calu-3 cell count Sinf Average): -100%
EC50 (Calu-3 cells [3]; Calu-3, read-out: Calu-3 cell count EC50 GeoMean): > 9.98 µM
Calu-3 uninfected cytotoxicity Sinf Average (Calu-3 cells [4]): -89%
Emax (HeLa-ACE2 cells [5]; HeLa-ACE2, 24 h, read-out: HeLa-ACE2 cell count Sinf Average): 98%
EC50 (HeLa-ACE2 cells [5]; HeLa-ACE2, read-out: HeLa-ACE2 cell count EC50 GeoMean): > 4.23 µM
Emax (SARS-CoV-2 [6]; Severe acute respiratory syndrome coronavirus 2, HeLa-ACE2, 24 h, curve plateau at infinite concentration, read-out: HeLa-ACE2 CoV-2 Sinf Average): 100%
EC50 (SARS-CoV-2 [6]; Severe acute respiratory syndrome coronavirus 2, HeLa-ACE2, detail column, read-out: HeLa-ACE2 CoV-2 EC50 GeoMean): 0.962 µM
HepG2 72-hour cytotoxicity Sinf Average (HepG2): -107%
HeLa-ACE2 synergy score with remdesivi [δ] (SARS-CoV-2 [7]): -0.722
CC50 at 24 h [8]: > 18.1 µM
HeLa-ACE2 uninfected cytotoxicity Sinf Average (HeLa-ACE2 cells [9]): -100%
HEK293T 72-hour cytotoxicty Sinf Average (HEK293T): -103%
Emax (SARS-CoV-2 [10]; Severe acute respiratory syndrome coronavirus 2, Calu-3, 48 h, curve plateau at infinite concentration, read-out: Calu-3 CoV-2 Sinf Average): 100%
EC50 (SARS-CoV-2 [10]; Severe acute respiratory syndrome coronavirus 2, Calu-3, detail column, read-out: Calu-3 CoV-2 EC50 GeoMean): > 1.59 µM
CC50 (in vitro): 1.69 µM
